Where two headings read alike, the source gives them in different places.
How the values were obtained:
[1] = biological target: PD-1/PD-L1 (Homo sapiens (Human), UniProt Q9NZQ7); experiment: PD-1/PD-L1 biochemical protein-protein interaction assay (ALPHA); type: binding; conditions: read-out: IC50 PD-L1-PD1
[2] = biological target: PD-L1 (Homo sapiens (Human), UniProt Q9NZQ7); experiment: PD-L1/PD-L1 dimerization biochemical protein-protein interaction assay (ALPHA); type: binding; conditions: read-out: AC50 PDL1 Dimer 1 nM
PD-L1, sequence (Q9NZQ7 19-238): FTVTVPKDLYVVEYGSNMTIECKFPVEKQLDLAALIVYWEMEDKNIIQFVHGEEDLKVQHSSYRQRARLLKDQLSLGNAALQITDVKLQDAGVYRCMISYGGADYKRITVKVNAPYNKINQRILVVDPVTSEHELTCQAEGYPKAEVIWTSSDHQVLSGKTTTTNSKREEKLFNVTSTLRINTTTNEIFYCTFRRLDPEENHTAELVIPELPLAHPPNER
PD-L1, sequence (Q9NZQ7 19-238): as above

[3] = 0.3 nM His tagged PD-L1, 2.5 nM biotinylated Fc-PD-1, readings of 0.064 nM are equal to or less than 0.064 nM
[4] = 0.5 nM His tagged PD-L1 and 0.5 nM FLAG tagged PD-L1, Table 4A
[5] = 0.3 nM His tagged PD-L1, 2.5 nM biotinylated Fc-PD-1, Table 3B
[6] = 0.5 nM His tagged PD-L1 and 0.5 nM FLAG tagged PD-L1, Table 4B

PD-1/PD-L1, sequence (Q9NZQ7 19-238): as above

SMILES | IC50 [1, 3] [nM] | AC50 [2, 4] [nM] | IC50 [1, 5] [nM] | AC50 [2, 6] [nM]
COc1nc(-c2cccc(-c3cccc4c3CC[C@@H]4Nc3nc(OC)c(CNCC(=O)O)nc3C(F)(F)F)c2Cl)ccc1CNC[C@@H]1CCC(=O)N1 [A-107] | ≤ 0.064 | 8.64 |  | 
COc1cc(-c2cccc(-c3cccc4c3CC[C@@H]4Nc3nc(OC)c(CNCC(=O)O)nc3C(F)(F)F)c2Cl)ccc1CNC1CC(O)(CF)C1 (stereo partly drawn) [A-108] | ≤ 0.064 | 6.64 |  | 
COc1nc(-c2cccc(-c3cccc4c3CC[C@@H]4Oc3nc(OC)c(CNC(C)(C)C(=O)O)cc3C(F)(F)F)c2Cl)ccc1CN[C@H]1C[C@](C)(O)C1 [B-1] |  |  | 0.064 | 1.11
COc1nc(-c2cccc(-c3cccc4c3CC[C@@H]4Oc3nc(OC)c(CN4CC[C@@H]5C[C@@]54C(=O)O)cc3C(F)(F)F)c2Cl)ccc1CN[C@H]1C[C@](C)(O)C1 [B-3] |  |  | 0.066 | 120
COc1nc(-c2cccc(-c3cccc4c3CC[C@@H]4Oc3nc(OC)c(CN4CC[C@H](C)[C@H]4C(=O)O)cc3C(F)(F)F)c2Cl)ccc1CNC[C@@H]1CCC(=O)N1 [B-7] |  |  | 0.064 | 4.04
COc1nc(-c2cccc(-c3cccc4c3CC[C@@H]4Oc3nc(OC)c(CN4CCC[C@]4(C)C(=O)O)cc3C(F)(F)F)c2Cl)ccc1CNC[C@@H]1CCC(=O)N1 [B-8] |  |  | 0.064 | 13.2
COc1nc(-c2cccc(-c3cccc4c3CC[C@@H]4Oc3nc(OC)c(CN4CC(C(=O)O)C4C)cc3Cl)c2Cl)ccc1CNC[C@@H]1CCC(=O)N1 (stereo partly drawn) [B-9] |  |  | 0.064 | 19.2
COc1nc(-c2cccc(-c3cccc4c3CC[C@@H]4Oc3nc(OC)c(CN4CC5CCC(C(=O)O)(C5)C4)cc3Cl)c2Cl)ccc1CNC[C@@H]1CCC(=O)N1 (stereo partly drawn) [B-11] |  |  | 0.066 | 71.4
COc1nc(-c2cccc(-c3cccc4c3CC[C@@H]4Oc3nc(OC)c(CNC(C)(C)C(=O)O)cc3C(F)(F)F)c2Cl)ccc1CNC[C@@H]1CCC(=O)N1 [B-12] |  |  | 0.064 | 1.12
COc1nc(-c2cccc(-c3cccc4c3CC[C@@H]4Oc3nc(OC)c(CN4CCC[C@@]4(C)C(=O)O)cc3C(F)(F)F)c2Cl)ccc1CNC[C@@H]1CCC(=O)N1 [B-13] |  |  | 0.064 | 3.92
COc1nc(O[C@H]2CCc3c(-c4cccc(-c5ccc(CNC[C@@H]6CCC(=O)N6)c(OCC#N)n5)c4Cl)cccc32)c(Cl)cc1CNC1(C(=O)O)CC1 [B-14] |  |  | 0.064 | 15.7
COc1nc(O[C@H]2CCc3c(-c4cccc(-c5ccc(CNC[C@@H]6CCC(=O)N6)c(OCC#N)n5)c4Cl)cccc32)c(Cl)cc1CN1CC[C@@H](C(=O)O)C1 [B-19] |  |  | 0.064 | 9.33
COc1nc(-c2cccc(-c3cccc4c3CC[C@@H]4Oc3nc(OC)c(CNC45CC(C(=O)O)(C4)C5)cc3Cl)c2Cl)ccc1CNC[C@@H]1CCC(=O)N1 [B-20] |  |  | 0.064 | 33.7
CNc1nc(-c2cccc(-c3cccc4c3CC[C@@H]4Oc3nc(OC)c(CN4CC[C@@H](C(=O)O)C4)cc3Cl)c2Cl)cnc1CN1CC(C)(O)C1 [B-21] |  |  | 0.064 | 31.2
COc1nc(-c2cccc(-c3cccc4c3CC[C@@H]4Oc3nc(OC)c(CN4CC5(C(=O)O)CCC4CC5)cc3Cl)c2Cl)ccc1CNC1CC2CCC1N2C(C)=O (stereo partly drawn) [B-23] |  |  | 0.064 | 62.8
COc1nc(-c2cccc(-c3cccc4c3CC[C@@H]4Oc3nc(OC)c(CN4CCC5(C(=O)O)CC45)cc3Cl)c2Cl)ccc1CNC[C@@H]1CCC(=O)N1 (stereo partly drawn) [B-26] |  |  | 0.064 | 18.4
COc1nc(-c2cccc(-c3cccc4c3CC[C@@H]4Oc3nc(OC)c(CNCCC(=O)O)cc3Cl)c2Cl)ccc1CNC[C@@H]1CCC(=O)N1 [B-27] |  |  | 0.064 | 11.2
COc1nc(-c2cccc(-c3cccc4c3CC[C@@H]4Oc3nc(OCc4cc(F)cc(C#N)c4)c(CN4CC5(C(=O)O)CCC4CC5)cc3Cl)c2Cl)ccc1CNC[C@@H]1CCC(=O)N1 [B-30] |  |  | 0.158 | 58.3
COc1nc(-c2cccc(-c3cccc4c3CC[C@@H]4Oc3nc(OCc4cc(Cl)cc(C#N)c4)c(CN4CC5(C(=O)O)CCC4CC5)cc3Cl)c2Cl)ccc1CNC[C@@H]1CCC(=O)N1 [B-31] |  |  | 0.085 | 32.3
COc1nc(-c2cccc(-c3cccc4c3CC[C@@H]4Oc3nc(OC)c(CN4CC[C@@H](C(=O)O)C4)nc3Br)c2Cl)cnc1CNC[C@@H]1CCC(=O)N1 [B-37] |  |  | 0.064 | 28
COc1nc(-c2cccc(-c3cccc4c3CC[C@@H]4Oc3nc(OC)c(CNC[C@@H]4CCC(=O)N4)nc3Br)c2Cl)cnc1CNC[C@@H]1CCC(=O)N1 [B-38] |  |  | 0.095 | 46.5
COc1cc(-c2cccc(-c3cccc4c3CC[C@@H]4Oc3nc(OC)c(CN4CC[C@@H](C(=O)O)C4)cc3Cl)c2Cl)ccc1CNC[C@@H]1CCC(=O)N1 [B-41] |  |  | 0.064 | 3.59
COc1nc(O[C@H]2CCc3c(-c4cccc(-c5cnc(CNC[C@@H]6CCC(=O)N6)c(OC)n5)c4Cl)cccc32)c(Cl)cc1CN1CC(C(=O)O)C1 [B-43] |  |  | 0.064 | 44.3
COc1nc(-c2cccc(-c3cccc4c3CC[C@@H]4Oc3nc(OC)c(CN4CC(C(=O)O)C4)nc3Cl)c2Cl)cnc1CNC[C@@H]1CCC(=O)N1 [B-44] |  |  | 0.064 | 17.9
COc1nc(-c2cccc(-c3cccc4c3CC[C@@H]4Oc3nc(OC)c(CN4CC5(C(=O)O)CCC4CC5)nc3Cl)c2Cl)cnc1CNC[C@@H]1CCC(=O)N1 [B-45] |  |  | 0.064 | 20.2
COc1nc(-c2cccc(-c3cccc4c3CC[C@@H]4Oc3nc(OCc4cncc(Cl)c4)c(CN4CC[C@H](C(=O)O)C4)cc3Cl)c2Cl)ccc1CNC[C@@H]1CCC(=O)N1 [B-49] |  |  | 0.064 | 19.1
COc1nc(-c2cccc(-c3cccc4c3CC[C@@H]4Oc3nc(OC)c(CN4CC5(C(=O)O)CCC4CC5)cc3Cl)c2Cl)ccc1CN[C@H]1CCCC[C@H]1O [B-50] |  |  | 0.064 | 26.1
COc1nc(-c2cccc(-c3cccc4c3CC[C@@H]4Oc3nc(OC)c(CN4CC5(C(=O)O)CCC4CC5)cc3Cl)c2Cl)ccc1CN1CC[C@@H](O)C1 [B-51] |  |  | 0.064 | 27.5

Second part, the compound after the results:

IC50 [1, 3] [nM] | AC50 [2, 4] [nM] | IC50 [1, 5] [nM] | AC50 [2, 6] [nM] | SMILES
≤ 0.064 | 8.98 |  |  | COc1nc(-c2cccc(-c3cccc4c3CC[C@@H]4Nc3nc(OC)c(CNCC(=O)O)nc3C(F)(F)F)c2Cl)ccc1CN[C@@H]1CCCC[C@@H]1O [A-109]
 |  | 0.064 | 17.5 | COc1nc(-c2cccc(-c3cccc4c3CC[C@@H]4Oc3nc(OC)c(CN4CC[C@@H](C(=O)O)C4)cc3C(F)(F)F)c2Cl)ccc1CN[C@H]1C[C@](C)(O)C1 [B-2]
 |  | 0.064 | 20.9 | COc1nc(-c2cccc(-c3cccc4c3CC[C@@H]4Oc3nc(OC)c(CN4CC5(C(=O)O)CCC4CC5)cc3C(F)(F)F)c2Cl)ccc1CN[C@H]1C[C@](C)(O)C1 [B-4]
 |  | 0.064 | 2.67 | COc1nc(-c2cccc(-c3cccc4c3CC[C@@H]4Oc3nc(OC)c(CN4CCC[C@H]4C(=O)O)cc3C(F)(F)F)c2Cl)ccc1CNC[C@@H]1CCC(=O)N1 [B-5]
 |  | 0.064 | 7.96 | COc1nc(-c2cccc(-c3cccc4c3CC[C@@H]4Oc3nc(OC)c(CN4CCC[C@@H]4C(=O)O)cc3C(F)(F)F)c2Cl)ccc1CNC[C@@H]1CCC(=O)N1 [B-6]
 |  | 0.064 | 5.4 | COc1nc(-c2cccc(-c3cccc4c3CC[C@@H]4Oc3nc(OC)c(CN4CC(C)(C(=O)O)C4)cc3Cl)c2Cl)ccc1CNC[C@@H]1CCC(=O)N1 [B-10]
 |  | 0.074 | 13.4 | COc1nc(-c2cccc(-c3cccc4c3CC[C@@H]4Oc3nc(OCC#N)c(CNC4(C(=O)O)CC4)cc3C(F)(F)F)c2Cl)ccc1CNC[C@@H]1CCC(=O)N1 [B-22]
 |  | 0.064 | 19.4 | COc1nc(-c2cccc(-c3cccc4c3CC[C@@H]4Oc3nc(OC)c(CN4CC5(CC(C(=O)O)C5)C4)cc3Cl)c2Cl)ccc1CNC[C@@H]1CCC(=O)N1 [B-24]
 |  | 0.064 | 17.8 | COc1nc(-c2cccc(-c3cccc4c3CC[C@@H]4Oc3nc(OC)c(CN4CCC(C)(C)C(C(=O)O)C4)cc3Cl)c2Cl)ccc1CNC[C@@H]1CCC(=O)N1 (stereo partly drawn) [B-25]
 |  | 0.088 | 26.9 | CNC(=O)C1CCN(Cc2cc(Cl)c(O[C@H]3CCc4c(-c5cccc(-c6cnc(CNC[C@@H]7CCC(=O)N7)c(OC)n6)c5Cl)cccc43)nc2OC)C1 (stereo partly drawn) [B-28]
 |  | 0.095 | 12.9 | COc1nc(-c2cccc(-c3cccc4c3CC[C@@H]4Oc3nc(OCc4cncc(Cl)c4)c(CNC4(C(=O)O)CC4)cc3Cl)c2Cl)ccc1CNC[C@@H]1CCC(=O)N1 [B-32]
 |  | 0.111 | 22.3 | COc1nc(O[C@H]2CCc3c(-c4cccc(-c5cnc(CNC[C@@H]6CCC(=O)N6)c(OC)n5)c4Cl)cccc32)c(Cl)cc1CNC1CC(NC(C)=O)C1 (stereo partly drawn) [B-34]
 |  | 0.064 | 3.8 | COc1cc(-c2cccc(-c3cccc4c3CC[C@@H]4Oc3nc(OC)c(CN4CC5(C(=O)O)CCC4CC5)cc3Cl)c2Cl)ccc1CNC[C@@H]1CCC(=O)N1 [B-39]
 |  | 0.064 | 12.5 | COc1cc(-c2cccc(-c3cccc4c3CC[C@@H]4Oc3nc(OC)c(CN4CC(C(=O)O)C4)cc3Cl)c2Cl)ccc1CNC[C@@H]1CCC(=O)N1 [B-42]
 |  | 0.064 | 7.12 | COc1nc(-c2cccc(-c3cccc4c3CC[C@@H]4Oc3nc(OCc4cncc(Cl)c4)c(CN4CC5(C(=O)O)CCC4CC5)cc3Cl)c2Cl)ccc1CNC[C@@H]1CCC(=O)N1 [B-48]
 |  | 0.095 | 46.4 | COc1nc(-c2cccc(-c3cccc4c3CC[C@@H]4Oc3nc(OC)c(CN4CC5(C(=O)O)CCC4CC5)cc3Cl)c2Cl)ccc1CN[C@@H]1CCC[C@@H]1O [B-52]
 |  | 0.189 | 41 | COc1nc(-c2cccc(-c3cccc4c3CC[C@@H]4Oc3nc(OCc4ccc(-n5cccn5)nc4)c(CN4CC5(C(=O)O)CCC4CC5)cc3Cl)c2Cl)ccc1CNC[C@@H]1CCC(=O)N1 [B-56]

Reference: patent US10774071B2, “PD-1/PD-L1 inhibitors” (Gilead Sciences, Inc., priority 2018, dated 2020)
